From ChEMBL document CHEMBL1155965, “Addressing the malaria drug resistance challenge using flow cytometry to discover new antimalarials” (Bioorg Med Chem Lett, 2009)

How the values were obtained:
Plasmodium falciparum [1] = test: Antimalarial activity against Plasmodium falciparum W2mef ring form by hoechst 33342-thiazole orange stain based flow cytometry assay; assay type: functional, organism-based
Plasmodium falciparum [2] = test: Antimalarial activity against Plasmodium falciparum W2mef assessed as DNA positive erythrocytes by hoechst 33342-thiazole orange stain based flow cytometry assay; assay type: functional, organism-based
Plasmodium falciparum [3] = test: Antimalarial activity against Plasmodium falciparum W2mef trophozoite form by hoechst 33342-thiazole orange stain based flow cytometry assay; assay type: functional, organism-based
Plasmodium falciparum [4] = test: Antimalarial activity against Plasmodium falciparum W2mef schizont form by hoechst 33342-thiazole orange stain based flow cytometry assay; assay type: functional, organism-based
Plasmodium falciparum [5] = test: Antimalarial activity against Plasmodium falciparum W2mef at 10 uM after 48 hrs by hoechst 33342-thiazole orange stain based flow cytometry assay; assay type: functional
Plasmodium falciparum [6] = test: microbe, parasite or virus in culture; details: W2mef
Description: Antimalarial activity against Plasmodium falciparum W2mef by hypoxanthine uptake assay

[7] = Cytotoxicity against human erythrocytes assessed as intact cells by propidium iodide stain based flow cytometry; assay type: cell-based, Erythrocyte; details: read-out: Activity
[8] = Cytotoxicity against human erythrocytes assessed as change in internal complexity by flow cytometry; assay type: cell-based; details: erythrocyte
[9] = Cytotoxicity against human erythrocytes assessed as change in cell shape by flow cytometry; assay type: cell-based; details: erythrocyte

Compound Cc1[nH]c(/C=C2\C(=O)Nc3ccc(S(=O)(=O)N(C)c4cccc(Cl)c4)cc32)c(C)c1C(=O)N1CCN(C)CC1 has an IC50 (Plasmodium falciparum [1]) of 228 nM, an IC50 (Plasmodium falciparum [2]) of 320 nM and an IC50 (Plasmodium falciparum [3]) of 620 nM. The IC50 (Plasmodium falciparum [4]) was 317 nM and the inhibition at 10 µM (Plasmodium falciparum [5]) was 85.1%.
For O=C(NCCc1c[nH]cn1)/C(Cc1ccccc1)=N\O, the inhibition at 10 µM (Plasmodium falciparum [5]) was 2.61%.
Fc1cccc(-c2nc3ccncc3[nH]2)c1F gave an inhibition at 10 µM (Plasmodium falciparum [5]) of 14.4%.
COc1cc2ncn(-c3sc(C(N)=O)cc3OCc3ccccc3C(F)(F)F)c2cc1OC gave an inhibition at 10 µM (Plasmodium falciparum [5]) of 24.6%.
In the case of COC(=O)c1cn2nc[nH]c(=O)c2c1C, the inhibition at 10 µM (Plasmodium falciparum [5]) is reported as 9.62%.
Compound N#Cc1ccc(Nc2nc(O)cc(O)n2)cc1 has an inhibition at 10 µM (Plasmodium falciparum [5]) of 1.46%.
CCN(CC)C(=O)[C@@]1(c2ccccc2)C[C@H]1CNC(=O)O[C@@H]1O[C@H](C(=O)OC)[C@@H](O)[C@H](O)[C@H]1O gave an inhibition at 10 µM (Plasmodium falciparum [5]) of 3.16%.
With Oc1c(F)cc(CN2CCc3ccccc3C2)cc1F the inhibition at 10 µM (Plasmodium falciparum [5]) was 8.47%.
CC(C)C1=NN=CC1C1CC2CCC(C1)N2 (centres undefined) gave an inhibition at 10 µM (Plasmodium falciparum [5]) of 0%.
Cn1cc(-c2[nH]c3cc(N)cc4c3c2C=NNC4=O)cn1 gave an inhibition at 10 µM (Plasmodium falciparum [5]) of 9.17%.
With Cn1cnc(CSCc2ccccc2)c1 the inhibition at 10 µM (Plasmodium falciparum [5]) was 42.1%.
Work on Cn1cncc1CSCc1ccc(I)cc1 yielded an inhibition at 10 µM (Plasmodium falciparum [5]) of 41.9%.
Work on Cc1cc(O)cc(C)c1CN1CCc2ccccc2C1 yielded an inhibition at 10 µM (Plasmodium falciparum [5]) of 6.76%.
Compound Ic1ccc(CSCc2c[nH]cn2)cc1 has an inhibition at 10 µM (Plasmodium falciparum [5]) of 37.1%.
In the case of Cc1ccc(-c2nc3c(Br)cc4c(c3[nH]2)C(=O)NC(=O)C4(C)C)cc1[N+](=O)[O-], the inhibition at 10 µM (Plasmodium falciparum [5]) is reported as 11.2%.
Cn1cnc(CSCc2ccc(I)cc2)c1 gave an IC50 (Plasmodium falciparum [1]) of 1080 nM, an IC50 (Plasmodium falciparum [2]) of 3770 nM and an IC50 (Plasmodium falciparum [3]) of 16600 nM. For the same compound, the IC50 (Plasmodium falciparum [4]) was 2000 nM and the inhibition at 10 µM (Plasmodium falciparum [5]) was 74.9%.
O=S(=O)(c1ccccc1)C(CCCn1ccnc1)c1ccc(I)cc1 (centres undefined) showed an inhibition at 10 µM (Plasmodium falciparum [5]) of 3.46%.
Work on O=C(c1ccc(Cl)cc1)c1ccc2[nH]c(=O)cc(-c3cccc(Cl)c3)c2c1 yielded an inhibition at 10 µM (Plasmodium falciparum [5]) of 36.1%.
Cn1cnc(C[S+]([O-])Cc2ccc(I)cc2)c1 (centres undefined) showed an inhibition at 10 µM (Plasmodium falciparum [5]) of 6.31%.
In the case of O=C(Cc1ccc(O)cc1)N1CCc2ccccc2C1, the inhibition at 10 µM (Plasmodium falciparum [5]) is reported as 1.1%.
For Oc1ccc(C(O)C2CCc3ccccc3C2)cc1 (centres undefined), the inhibition at 10 µM (Plasmodium falciparum [5]) was 14.6%.
Cc1cc(I)ccc1Nc1c(C(=O)N2CCNCC2)cc2nc[nH]c2c1F gave an inhibition at 10 µM (Plasmodium falciparum [5]) of 0.25%.
Clc1ccc(C2(c3ccc4noc(-c5cccc(Cl)c5)c4c3)OCCO2)cc1 showed an inhibition at 10 µM (Plasmodium falciparum [5]) of 54.5%.
For C[C@@H]1CC[C@H]2[C@@H](C)C(=O)O[C@@H]3O[C@@]4(C)CC[C@@H]1[C@]32OO4 [ARTEMISININ], the IC50 (Plasmodium falciparum [1]) was 20 nM, the IC50 (Plasmodium falciparum [2]) was 11 nM and the IC50 (Plasmodium falciparum [3]) was 7 nM. The IC50 (Plasmodium falciparum [4]) was 8 nM and the IC50 (Plasmodium falciparum [6]) was 12 nM.
Cc1cc(C#N)cc(C)c1Oc1nc(Nc2ccc(C#N)cc2)nc(N)c1Br [ETRAVIRINE] gave an IC50 (Plasmodium falciparum [1]) of 409 nM, an IC50 (Plasmodium falciparum [2]) of 506 nM and an IC50 (Plasmodium falciparum [3]) of 726 nM. For the same compound, the viability [7] was > 98.5%, the Activity [8] was “Non-toxic” and the IC50 (Plasmodium falciparum [4]) was 716 nM. The Activity [9] was “Non-toxic” and the inhibition at 10 µM (Plasmodium falciparum [5]) was 91.7%.
OC(c1cc(C(F)(F)F)nc2c(C(F)(F)F)cccc12)C1CCCCN1 (centres undefined) [MEFLOQUINE] gave an IC50 (Plasmodium falciparum [1]) of 147 nM, an IC50 (Plasmodium falciparum [3]) of 74 nM and an IC50 (Plasmodium falciparum [4]) of 44 nM. It also gave an IC50 (Plasmodium falciparum [6]) of 142 nM.
In the case of Cc1cc(/C=C/C#N)cc(C)c1Nc1ccnc(Nc2ccc(C#N)cc2)n1 [RILPIVIRINE], the IC50 (Plasmodium falciparum [1]) is reported as 1200 nM, the IC50 (Plasmodium falciparum [2]) is reported as 1100 nM and the IC50 (Plasmodium falciparum [3]) is reported as 2000 nM. For the same compound, the IC50 (Plasmodium falciparum [4]) was 1210 nM and the inhibition at 10 µM (Plasmodium falciparum [5]) was 49.8%.
CNC(=O)c1cc(Oc2ccc(NC(=O)Nc3ccc(Cl)c(C(F)(F)F)c3)cc2)ccn1 [SORAFENIB] gave an IC50 (Plasmodium falciparum [1]) of 328 nM, an IC50 (Plasmodium falciparum [2]) of 384 nM and an IC50 (Plasmodium falciparum [3]) of 509 nM. It also gave an IC50 (Plasmodium falciparum [4]) of 376 nM and an inhibition at 10 µM (Plasmodium falciparum [5]) of 87.5%.
Compound C/C(O)=C(\C#N)C(=O)Nc1ccc(C(F)(F)F)cc1 [TERIFLUNOMIDE] has an inhibition at 10 µM (Plasmodium falciparum [5]) of 4.96%.
